Laboratory results from patent US6559173B1, “3-(heteroarylamino)methylene-1,3-dihydro-2H-indol-2-ones as kinase inhibitors” (Allergan, Inc., priority 2001, dated 2003).

Assays:
[1] = test system: VEGF induced increases in intracellular calcium levels in HUVEC (human umbilical vein endothelial cells); assay: VEGF Stimulated Ca++ signal assay (FLIPR); type: cell-based; conditions: VEGF 5 ng/mL; for IC50: 0.01 to 10.0 μM; for inhibition at 10 µM: 30 min pre-incubation
Protocol: VEGF Stimulated Ca^++ Signal in vitro
Automated FLIPR (Fluorometric Imaging Plate Reader) technology was used to screen for inhibitors of VEGF induced increases in intracellular calcium levels in fluorescent dye loaded endothelial cells. HUVEC (human umbilical vein endothelial cells) (Clonetics) were seeded in 96-well fibronectin coated black-walled plates overnight @ 37° C./5%CO2. Cells were loaded with calcium indicator Fluo-4 for 45 minutes at 37° C. Cells were washed 4 times (Original Cell Wash, Labsystems) to remove extracellular dye. Test compounds were reconstituted in 100% DMSO and added to the cells to give a final DMSO concentration of 0.1%. For screening, cells were pre-incubated with test agents for 30 minutes, at a single concentration (10 μM) or at concentrations ranging from 0.01 to 10.0 μM followed by VEGF stimulation (5 ng/mL). Changes in fluorescence at 516 nm were measured simultaneously in all 96 wells using a cooled CCD camera. Data were generated by determining max-min fluorescence levels for unstimulated, stimulated, and drug treated samples. IC50 values for test compounds were calculated from % inhibition of VEGF stimulated responses in the absence of inhibitor.

[2] = target: T1, cytoplasmic domain of the human VEGF receptor (VEGFR-2) (Homo sapiens, UniProt P35968); assay: KDR Assay; type: biochemical; conditions: His-VEGFR-2, 3.6 μM ATP, poly-Glu-Tyr (4:1)
T1 construct: The cytoplasmic domain of the human VEGF receptor (VEGFR-2) was expressed as a Histidine-tagged fusion protein; His tag (Histidine-tagged fusion); made in house; host or cells: insect cells (engineered baculovirus)
Protocol: The cytoplasmic domain of the human VEGF receptor (VEGFR-2) was expressed as a Histidine-tagged fusion protein following infection of insect cells using an engineered baculovirus. His-VEGFR-2 was purified to homogeneity, as determined by SDS-PAGE, using nickel resin chromatography. Kinase assays were performed in 96 well microtiter plates that were coated overnight with 30 μg of poly-Glu-Tyr (4:1) in 10 mM Phosphate Buffered Saline (PBS), pH 7.2-7.4. The plates were incubated with 1% BSA and then washed four times with PBS prior to starting the reaction. Reactions were carried out in 120 μL reaction volumes containing 3.6 μM ATP in kinase buffer (50 mM Hepes buffer pH 7.4, 20 mM MgCl2, 0.1 mM MnCl2 and 0.2 mM Na3VO4). Test compounds were reconstituted in 100% DMSO and added to the reaction to give a final DMSO concentration of 5%. Reactions were initiated by the addition 0.5 ng of purified protein. Following a ten minute incubation at 25° C., the reactions were washed four times with PBS containing 0.05% Tween-20. 100 μl of a monoclonal anti-phosphotyrosine antibody-peroxidase conjugate was diluted 1:10000 in PBS-Tween-20 and added to the wells for 30 minutes. Following four washes with PBS-Tween-20, 100 μl of 0-Phenylenediamine Dihydrochloride in Phosphate-citrate buffer, containing urea hydrogen peroxide, was added to the wells for 7 minutes as a colorimetric substrate for the peroxidase. The reaction was terminated by the addition of 100 μl of 2.5N H2SO4 to each well and read using a microplate ELISA reader set at 492 nm. IC50 values for compound inhibition were calculated directly from graphs of optical density (arbitrary units) versus compound concentration following subtraction of blank values.

[3] = test system: VEGF-induced EBD extravasation; assay: VEGF-induced Dermal Extravasation in Guinea Pig (Miles Assay); type: in vivo; conditions: for in-vivo activity (Miles Assay, Table 3): oral administration; for Miles Assay % inhibition: single oral dose 75 mg/kg, vehicle PEG400
Protocol: VEGF-induced Dermal Extravasation in Guinea Pig (Miles Assay). Male Hartley guinea pigs (300-600 g) were anesthetized with isofluorane, sheared, and given a single oral dose of drug or the respective vehicle. Ten minutes prior to the end of drug treatment, guinea pigs were anesthetized with isofluorane, and 0.5% Evans blue dye (EBD) in PBS (13-15 mg/kg dose of EBD) was injected intravenously. After 5 minutes, triplicate intradermal injections of 100 ng rhVEGF165 in 100 μl PBS and of 100 μl PBS alone were administered on the flank. After 20 minutes, each animal was euthanized with Pentosol, and the skin containing the intradermal injection sites was removed for image analysis.
Using an analog video camera coupled to a PC, an image of each trans-illuminated skin sample was captured, and the integrated optical density of each injection site was measured using ImagePro 4. For each skin sample, the difference between the mean optical density of the VEGF sites and mean optical density of the PBS sites is the measure of VEGF-induced EBD extravasation in that animal. These measured values were averaged per study group to determine the mean VEGF-induced EBD extravasation for each experimental condition, and the group means were then compared to assess inhibition of VEGF-induced EBD extravasation in the drug-treated groups relative to the vehicle-treated controls.

T1 sequence (P35968 786-1356 limits assumed): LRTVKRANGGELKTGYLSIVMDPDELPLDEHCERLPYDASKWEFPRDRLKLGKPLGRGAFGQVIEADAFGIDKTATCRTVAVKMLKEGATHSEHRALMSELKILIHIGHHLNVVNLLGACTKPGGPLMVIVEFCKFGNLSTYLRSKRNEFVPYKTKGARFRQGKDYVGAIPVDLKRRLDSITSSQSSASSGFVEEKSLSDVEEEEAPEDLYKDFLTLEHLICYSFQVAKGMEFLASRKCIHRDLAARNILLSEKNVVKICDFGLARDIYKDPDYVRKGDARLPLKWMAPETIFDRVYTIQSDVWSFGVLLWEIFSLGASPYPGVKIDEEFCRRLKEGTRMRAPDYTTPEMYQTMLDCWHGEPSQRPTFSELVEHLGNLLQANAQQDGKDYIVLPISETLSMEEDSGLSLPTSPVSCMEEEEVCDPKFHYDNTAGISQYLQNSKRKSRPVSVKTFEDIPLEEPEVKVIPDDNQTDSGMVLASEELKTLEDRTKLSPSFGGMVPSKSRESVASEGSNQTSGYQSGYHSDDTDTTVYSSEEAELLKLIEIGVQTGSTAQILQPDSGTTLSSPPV

Row | Structure (SMILES) | IC50 [2] [nM] | IC50 [1] [nM] | inhibition at 10 µM ([1]; Homo sapiens) [%] | IC50 ([1]; Homo sapiens) [nM] | in-vivo activity (Miles Assay, Table 3) [3] | Miles Assay % inhibition [3] [%]
1 | Cc1cccc2c1C(=CNc1cc[nH]n1)C(=O)N2 [Example 6, 4-Methyl-3-[(1H-pyrazol-3-ylamino)-methylene]-1,3-dihydro-indol-2-one] | 500 | 1070 | 97.6 | ≤ 1000 | significant in-vivo activity | 83
2 | Cc1cc(NC=C2C(=O)Nc3ccc(F)cc32)n[nH]1 [Example 26, 5-Fluoro-3-[(5-methyl-1H-pyrazol-3-ylamino)-methylene]-1,3-dihydro-indol-2-one] | 330 | 520 | 97.1 | ≤ 1000 | significant in-vivo activity | 100
3 | O=C1Nc2ccc(F)cc2C1=CNc1cc(-c2ccco2)[nH]n1 [Example 27, 5-Fluoro-3-[(5-furan-2-yl-1H-pyrazol-3-ylamino)-methylene]-1,3-dihydro-indol-2-one] | 530 | 1050 | 98.6 | ≤ 1000 |  | 
4 | CC(C)(C)c1cc(NC=C2C(=O)Nc3ccccc32)no1 [Example 41, 3-[(5-tert-Butyl-isoxazol-3-ylamino)-methylene]-1,3-dihydro-indol-2-one] | 780 |  | 96.5 | 10000 |  | 
5 | Cc1onc(NC=C2C(=O)Nc3ccccc32)c1Br [Example 42, 3-[(4-Bromo-5-methyl-isoxazol-3-ylamino)-methylene]-1,3-dihydro-indol-2-one] | 1910 |  | 0.3 |  |  | 
6 | Cc1noc(NC=C2C(=O)Nc3ccccc32)c1C [Example 45, 3-[(3,4-Dimethyl-isoxazol-5-ylamino)-methylene]-1,3-dihydro-indol-2-one] | 980 |  | 84.9 | 2550 |  | 
7 | Cc1oc(C(C)(C)C)cc1-c1cc(NC=C2C(=O)Nc3ccccc32)n(C)n1 [Example 47, 3-{[5-(5tert-Butyl-2-methyl-furan-3-yl)-2-methyl-2H-pyrazol-3-ylamino]-methylene}-1,3-dihydro-indol-2-one] | 2510 |  | 79.7 | 5920 |  | 
8 | Cc1cc(NC=C2C(=O)Nc3cc(F)ccc32)no1 [Example 48, 6-Fluoro-3-[(5-methyl-isoxazol-3-ylamino)-methylene]-1,3-dihydro-indol-2-one] | 1390 |  |  | 960 |  | 
9 | O=C1Nc2cc(F)ccc2C1=CNc1cc(-c2ccco2)[nH]n1 [Example 50, 6-Fluoro-3-[(5-furan-2-yl-1H-pyrazol-3-ylamino)-methylene]-1,3-dihydro-indol-2-one] | 980 | 590 |  | ≤ 1000 |  | 
10 | O=C1Nc2cc(F)ccc2C1=CNc1cc[nH]n1 [Example 53, 6-Fluoro-3-[(1H-pyrazol-3-ylamino)-methylene]-1,3-dihydro-indol-2-one] | 2220 |  |  | 1380 |  | 

Continued, in another order:

Row | IC50 [2] [nM] | Structure (SMILES) | IC50 [1] [nM] | inhibition at 10 µM ([1]; Homo sapiens) [%] | IC50 ([1]; Homo sapiens) [nM] | in-vivo activity (Miles Assay, Table 3) [3] | Miles Assay % inhibition [3] [%]
11 | 15700 | Cc1oc(C(C)(C)C)cc1-c1cc(NC=C2C(=O)Nc3ccc(F)cc32)[nH]n1 [Example 28, 3-{[5-(5-tert-Butyl-2-methyl-furan-3-yl)-2H-pyrazol-3-ylamino]-methylene}-5-fluoro-1,3-dihydro-indol-2-one] |  | 43.9 |  |  | 
12 | 260 | Cc1oc(C(C)(C)C)cc1-c1cc(NC=C2C(=O)Nc3ccccc32)[nH]n1 [Example 29, 3-{[5-(5-tert-Butyl-2-methyl-furan-3-yl)-2H-pyrazol-3-ylamino]-methylene}-1,3-dihydro-indol-2-one] | 580 | 99.1 | ≤ 1000 |  | 
13 | 9540 | Cc1cc(C)cc(-c2cc(NC=C3C(=O)Nc4ccccc43)[nH]n2)c1 [Example 32, 3-{[5-(3,5-Dimethyl-phenyl)2H-pyrazol-3-ylamino]-methylene}-1,3-dihydro-indol-2-one] |  | 46.1 |  |  | 
14 | 1430 | COc1cccc(-c2cc(NC=C3C(=O)Nc4ccccc43)[nH]n2)c1 [Example 33, 3-{[5-(3-Methoxy-phenyl)-2H-pyrazol-3-ylamino]-methylene}-1,3-dihydro-indol-2-one] |  | 92.9 | 4400 |  | 
15 | 3490 | CN(C)c1ccc(-c2cc(NC=C3C(=O)Nc4ccccc43)[nH]n2)cc1 [Example 35, 3-{[5-(4-Dimethylamino-phenyl)-2H-pyrazol-3-ylamino]-methylene}-1,3-dihydro-indol-2-one] |  | 93 | 3060 |  | 
16 | 12700 | COc1ccccc1-c1cc(NC=C2C(=O)Nc3ccccc32)[nH]n1 [Example 37, 3-{[5-(2-Methoxy-phenyl)-2H-pyrazol-3-ylamino]-methylene}-1,3-dihydro-indol-2-one] |  | 13.6 |  |  | 
17 | 9900 | CCOc1ccc(-c2cc(NC=C3C(=O)Nc4ccccc43)[nH]n2)cc1 [Example 38, 3-{[5-(4-Ethoxy-phenyl)-2H-pyrazol-3-ylamino]-methylene}-1,3-dihydro-indol-2-one] |  | 70 | 6750 |  | 
18 | 2320 | O=C1Nc2ccccc2C1=CNc1ccon1 [Example 43, 3-(Isoxazol-3-ylaminomethylene)-1,3-dihydro-indol-2-one] |  | 62.4 | 7560 |  | 
19 | 650 | Cc1cc(NC=C2C(=O)Nc3ccccc32)no1 [Example 44, 3-[(5-Methyl-isoxazol-3-ylamino)-methylene]-1,3-dihydro-indol-2-one] |  | 97 | 2550 |  | 
20 | 11600 | CCn1nccc1NC=C1C(=O)Nc2ccccc21 [Example 46, 3-[(2-Ethyl-2H-pyrazol-3-ylamino)-methylene]-1,3-dihydro-indol-2-one] |  | 42.4 |  |  | 
21 | 1210 | O=C1Nc2cc(F)ccc2C1=CNc1cc(-c2ccccc2)[nH]n1 [Example 51, 6-Fluoro-3-[(5-phenyl-1H-pyrazol-3-ylamino)-methylene]-1,3-dihydro-indol-2-one] |  |  | 2320 |  | 
22 | 82300 | Cc1oc(C(C)(C)C)cc1-c1cc(NC=C2C(=O)Nc3cc(F)ccc32)[nH]n1 [Example 52, 3-{[5-(5-tert-Butyl-2-methyl-furan-3-yl)-2H-pyrazol-3-ylamino]-methylene}-6-fluoro-1,3-dihydro-indol-2-one] |  |  | 3400 |  | 
